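Exposure lasted 48 hours, with cells grown in 96-well plates and compounds tested at five concentrations. The concentration for 50% growth inhibition is given as GI50.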 Active and inactive are the calls of the source. Cut-off read from the data, not from the text of the source: active = GI50 up to about 1.1 µM and inactive = higher.
Columns and labels:
Experiment in all cases: inhibition of tumour cell growth, NCI panel, 48 h
A498 = test system: A498
IGROV-1 = test system: IGROV-1
LOX IMVI = test system: LOX IMVI
NCI-H226 = test system: NCI-H226
HT-29 = test system: HT-29
M14 = test system: M14
SNB-78 = test system: SNB-78
SK-MEL-5 = test system: SK-MEL-5
SNB-75 = test system: SNB-75
HL-60 = test system: HL-60
MOLT-4 = test system: MOLT-4
DMS-114 = test system: DMS-114
DMS-273 = test system: DMS-273
SK-MEL-2 = test system: SK-MEL-2
SF-539 = test system: SF-539
RXF 393 = test system: RXF 393
SN12C = test system: SN12C
OVCAR-4 = test system: OVCAR-4
SK-MEL-28 = test system: SK-MEL-28
HCT-15 = test system: HCT-15
NCI-H23 = test system: NCI-H23
KM12 = test system: KM12
TK-10 = test system: TK-10
K562 = test system: K562
CCRF-CEM = test system: CCRF-CEM
HOP-18 = test system: HOP-18
OVCAR-3 = test system: OVCAR-3
UACC-62 = test system: UACC-62
ACHN = test system: ACHN
Malme-3M = test system: Malme-3M
NCI-H460 = test system: NCI-H460
SF-268 = test system: SF-268
SF-295 = test system: SF-295
HCT-116 = test system: HCT-116
M19-MEL = test system: M19-MEL
SW-620 = test system: SW-620
A549 = test system: A549
LXFL 529 = test system: LXFL 529
OVCAR-8 = test system: OVCAR-8
UACC-257 = test system: UACC-257

## CC1(C)OC(COP2OCCO2)[C@H](COP2OCCO2)O1 (stereo not given in full)
A498
  GI50: > 100 µM (inactive)
IGROV-1
  GI50: 31 µM (inactive)
LOX IMVI
  GI50: > 100 µM (inactive)
NCI-H226
  GI50: > 100 µM (inactive)
HT-29
  GI50: > 100 µM (inactive)
M14
  GI50: > 100 µM (inactive)
SNB-78
  GI50: > 100 µM (inactive)
SK-MEL-5
  GI50: > 100 µM (inactive)
SNB-75
  GI50: > 100 µM (inactive)
HL-60
  GI50: > 100 µM (inactive)
MOLT-4
  GI50: > 100 µM (inactive)
DMS-114
  GI50: > 100 µM (inactive)
DMS-273
  GI50: > 100 µM (inactive)
SK-MEL-2
  GI50: > 100 µM (inactive)
SF-539
  GI50: > 100 µM (inactive)
RXF 393
  GI50: > 100 µM (inactive)
SN12C
  GI50: > 100 µM (inactive)
OVCAR-4
  GI50: > 100 µM (inactive)
SK-MEL-28
  GI50: > 100 µM (inactive)
HCT-15
  GI50: > 100 µM
NCI-H23
  GI50: > 100 µM (inactive)
KM12
  GI50: > 100 µM (inactive)
TK-10
  GI50: > 100 µM (inactive)
K562
  GI50: > 100 µM (inactive)
CCRF-CEM
  GI50: > 100 µM (inactive)
HOP-18
  GI50: > 100 µM (inactive)
OVCAR-3
  GI50: > 100 µM (inactive)
UACC-62
  GI50: > 100 µM (inactive)
ACHN
  GI50: > 100 µM (inactive)
Malme-3M
  GI50: > 100 µM (inactive)
NCI-H460
  GI50: > 100 µM (inactive)
SF-268
  GI50: > 100 µM (inactive)
SF-295
  GI50: > 100 µM (inactive)
HCT-116
  GI50: > 100 µM (inactive)
M19-MEL
  GI50: > 100 µM (inactive)
SW-620
  GI50: > 100 µM (inactive)
A549
  GI50: > 100 µM (inactive)
LXFL 529
  GI50: > 100 µM (inactive)
OVCAR-8
  GI50: > 100 µM (inactive)
UACC-257
  GI50: > 100 µM (inactive)

Source: ChEMBL document CHEMBL1201862, “PubChem BioAssay data set” (2004)
